Laboratory results published in US6444617B1, “Fused-heterocycle dicarboxylic acid diamide derivatives or salts thereof, herbicide and usage thereof” (Nihon Nohyaku Co., Ltd., priority 1998, dated 2002).

Key:
Format in all cases: in vivo
[1] = tested on: bulrush (Scirpus juncoides Roxb.); test: Test Example 1: herbicidal effect on paddy field weeds before emergence; details: Dosage 5 kg/ha
In short: (§1)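 Soil in pots is brought to paddy state and seeded with barnyard grass and bulrush; before germination, the soil receives a predetermined dosage of test compound in solution. After twenty-one days, control rate relative to untreated pots is calculated and graded.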

[2] = tested on: barnyard grass (Echinochloa crus-galli Beauv.); test: as above; details: Dosage 5 kg/ha
In short: as §1

soybean plant = test: Test Example 4: phytotoxicity to upland crop plants, treatment after emergence; details: dosage 5 kg/ha, sprayed after emergence, judged 14 days after treatment
In short: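 Post-emergence foliar spray at a prescribed concentration, applied once the sown weeds and soybean reached defined leaf stages in soil vats; herbicidal effect and soybean injury scored after 14 days.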

wheat = test: as above; details: dosage 5 kg/ha, sprayed after emergence, judged 14 days after treatment
In short: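 Upland weeds and crop plants (soybean, wheat) are grown from seed in soil until they reach given leaf stages, then treated by spraying with the compound-containing agent; effects are judged two weeks later.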

[3] = tested on: cocklebur (Xanthium strumarium L.), Xs; test: Test Example 4: herbicidal effect on upland weeds after emergence; details: dosage 5 kg/ha; sprayed after emergence; judged 14 days after treatment
In short: (§2)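 Soil vats; sown weeds + soybean/wheat; spray at leaf-stage, prescribed compound concentration; weed-kill rate judged day 14.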

[4] = tested on: bird's eye speedwell (Veronica persica Poir.), Vp; test: as above; details: dosage 5 kg/ha; sprayed after emergence; judged 14 days after treatment
In short: as §2

[5] = tested on: forxtail grass (Alopecurus aequalis var. amurensis Ohwi), Am; test: as above; details: dosage 5 kg/ha; sprayed after emergence; judged 14 days after treatment
In short: as §2

[6] = tested on: cleavers (Galium aparine L.), Ga; test: as above; details: dosage 5 kg/ha; sprayed after emergence; judged 14 days after treatment
In short: as §2

[7] = tested on: barnyard grass (Echinochloa crus-galli Beauv.), Ec; test: as above; details: dosage 5 kg/ha; sprayed after emergence; judged 14 days after treatment
In short: as §2

[8] = tested on: velvetleaf (Abutilon theophtasti L.), At; test: as above; details: dosage 5 kg/ha; sprayed after emergence; judged 14 days after treatment
In short: as §2

[9] = tested on: cocklebur (Xanthium strumarium L.), Xs; test: Test Example 3: herbicidal effect on upland weeds before emergence; details: dosage 5 kg/ha
In short: (§3)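 Herbicidal activity was rated from kill rate determined 14 days post-spray, the compound having been applied pre-emergence as a liquid agent.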

[10] = tested on: bird's eye speedwell (Veronica persica Poir.), Vp; test: as above; details: dosage 5 kg/ha
In short: as §3

[11] = tested on: forxtail grass (Alopecurus aequalis var. amurensis Ohwi), Am; test: as above; details: foxtail grass, dosage 5 kg/ha
In short: as §3

[12] = tested on: cleavers (Galium aparine L.), Ga; test: as above; details: dosage 5 kg/ha
In short: as §3

[13] = tested on: barnyard grass (Echinochloa crus-galli Beauv.), Ec; test: as above; details: dosage 5 kg/ha
In short: as §3

[14] = tested on: velvetleaf (Abutilon theophtasti L.), At; test: as above; details: dosage 5 kg/ha
In short: as §3

wheat (Wh) = test: Test Example 3: phytotoxicity to upland crop plants, treatment before emergence; details: dosage 5 kg/ha
In short: (§4)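 A sprayed liquid agent with a prescribed concentration of active compound was applied pre-emergence. Visual phytotoxicity on soybean and wheat was rated by criterion two weeks (14 days) after application, concurrently with the herbicidal assessment.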

soybean plant (So) = test: as above; details: dosage 5 kg/ha
In short: as §4

[15] = tested on: bulrush (Scirpus juncoides Roxb.); test: Test Example 2: herbicidal effect on paddy field weeds after emergence; details: Dosage 5 kg/ha; one-leaved stage; 21 days after treatment
In short: (§5)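 Weeds were sown in 1/10000 are pots of soil flooded to paddy conditions and grown to the one-leaf stage, then the soil was treated with a solution of compound at a predetermined dosage.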

[16] = tested on: monochoria (Monochoria vaginalis Presl); test: as above; details: Dosage 5 kg/ha; one-leaved stage; 21 days after treatment
In short: as §5

[17] = tested on: barnyard grass (Echinochloa crus-galli Beauv.); test: as above; details: Dosage 5 kg/ha; one-leaved stage; 21 days after treatment
In short: as §5

| Structure (SMILES) | Pre-emergence treatment Bulrush (herbicidal effect) [1] | Pre-emergence treatment Barnyard grass (herbicidal effect) [2] | Phytotoxicity So (soybean plant) | Phytotoxicity Wh (wheat) | Herbicidal effect Xs [3] | Herbicidal effect Vp [4] | Herbicidal effect Am [5] | Herbicidal effect Ga [6] | Herbicidal effect Ec [7] | Herbicidal effect At [8] | Herbicidal effect Xs [9] | Herbicidal effect Vp [10] | Herbicidal effect Am [11] | Herbicidal effect Ga [12] | Herbicidal effect Ec [13] | Herbicidal effect At [14] | Phytotoxicity Wh (wheat (Wh)) | Phytotoxicity So (soybean plant (So)) | Post-emergence treatment Bulrush (herbicidal effect) [15] | Post-emergence treatment Monochoria (herbicidal effect) [16] | further results |
| --- | --- | --- | --- | --- | --- | --- | --- | --- | --- | --- | --- | --- | --- | --- | --- | --- | --- | --- | --- | --- | --- |
| CCc1ccc(Cl)c(CC)c1NC(=O)c1nc2ccccc2nc1C(=O)NC1CCCC1 [compound 1315] | 5 (Weed-killing rate is 100%.) | 5 (Weed-killing rate is 100%.) | 5 (Crop-killing rate is 100%.) | 5 (Crop-killing rate is 100%.) | 5 (Weed-killing rate is 100%.) | 5 (Weed-killing rate is 100%.) | 5 (Weed-killing rate is 100%.) | 5 (Weed-killing rate is 100%.) | 5 (Weed-killing rate is 100%.) | 5 (Weed-killing rate is 100%.) | 5 (Weed-killing rate is 100%.) | 5 (Weed-killing rate is 100%.) | 5 (Weed-killing rate is 100%.) | 5 (Weed-killing rate is 100%.) | 5 (Weed-killing rate is 100%.) | 5 (Weed-killing rate is 100%.) | 5 (Crop-killing rate is 100%.) | 5 (Crop-killing rate is 100%.) | 5 (Weed-killing rate is 100%.) | 5 (Weed-killing rate is 100%.) | Post-emergence treatment Barnyard grass (herbicidal effect) [17]: 5 (Weed-killing rate is 100%.) |
| CCCNC(=O)c1nc2ccccc2nc1C(=O)Nc1cccc(Cl)c1C [compound 1318] | 4 (Weed-killing rate is 90-99%.) | 5 (Weed-killing rate is 100%.) | 3 (Crop-killing rate is 70-89%.) | 4 (Crop-killing rate is 90-99%.) | 4 (Weed-killing rate is 90-99%.) | 5 (Weed-killing rate is 100%.) | 5 (Weed-killing rate is 100%.) | 5 (Weed-killing rate is 100%.) | 5 (Weed-killing rate is 100%.) | 5 (Weed-killing rate is 100%.) | 4 (Weed-killing rate is 90-99%.) | 5 (Weed-killing rate is 100%.) | 5 (Weed-killing rate is 100%.) | 4 (Weed-killing rate is 90-99%.) | 5 (Weed-killing rate is 100%.) | 5 (Weed-killing rate is 100%.) | 5 (Crop-killing rate is 100%.) | 3 (Crop-killing rate is 70-89%.) | 4 (Weed-killing rate is 90-99%.) | 5 (Weed-killing rate is 100%.) | Post-emergence treatment Barnyard grass (herbicidal effect) [17]: 4 (Weed-killing rate is 90-99%.) |
| Cc1c(Cl)cccc1NC(=O)c1nc2ccccc2nc1C(=O)NC1CCCC1 [compound 1327] | 4 (Weed-killing rate is 90-99%.) | 5 (Weed-killing rate is 100%.) | 3 (Crop-killing rate is 70-89%.) | 4 (Crop-killing rate is 90-99%.) | 4 (Weed-killing rate is 90-99%.) | 5 (Weed-killing rate is 100%.) | 5 (Weed-killing rate is 100%.) | 5 (Weed-killing rate is 100%.) | 5 (Weed-killing rate is 100%.) | 5 (Weed-killing rate is 100%.) | 4 (Weed-killing rate is 90-99%.) | 5 (Weed-killing rate is 100%.) | 5 (Weed-killing rate is 100%.) | 4 (Weed-killing rate is 90-99%.) | 5 (Weed-killing rate is 100%.) | 5 (Weed-killing rate is 100%.) | 5 (Crop-killing rate is 100%.) | 3 (Crop-killing rate is 70-89%.) | 4 (Weed-killing rate is 90-99%.) | 5 (Weed-killing rate is 100%.) | Post-emergence treatment Barnyard grass (herbicidal effect) [17]: 4 (Weed-killing rate is 90-99%.) |
